Laboratory results taken from patent US20080193563A1, “HARNESSING WNT SIGNALING TO RESTRICT HIV REPLICATION” (priority 2006, published 2008).

Experiments:
[1] = tested on: HIV IIIB; assay: HIV IIIB replication in stimulated PBMCs, p24 ELISA; assay type: cell-based; parameters: dose or concentration left out as unconfirmed; settings: ALLN at either 5 or 25, p24 day 7, vs non-ALLN treated
[2] = tested on: HIV 302151 (93US151); assay: Primary HIV isolate 302151 replication in stimulated PBMCs, p24 ELISA; assay type: cell-based; settings: ALLN at either 5 or 25, p24 day 7, vs non-ALLN treated
[3] = tested on: HIV-Bal in U87MG; assay: Cytokine pre-stimulation and HIV-Bal replication in U87MG, p24 ELISA; assay type: cell-based; settings: pre-stimulation at 10 ng/ml, p24 day 7
Method: (§1) U87MG (A) and HFA (B) were pre-stimulated with increasing doses of either GM-CSF or IFNγ for 24 h followed by HIV-BAL infection for 24 hours. HIV replication was determined by measuring HIV p24 levels by ELISA seven days post-infection. The dotted line represents basal level of HIV infection of astrocytes without cytokine pre-treatment. Data is representative of three experiments performed in quadruplicate. Error bars represent standard deviations of the mean. Asterisks denote significant values (p<0.05) in comparison to untreated cultures as evaluated by analysis of variance.
(§2) To determine if pre-stimulation of astrocytes primes astrocytes, for productive HIV infection, U87MG and HFA were pre-treated for 24 hours with TNFγ, GM-CSF, or IFNγ at various concentrations (0-1000 ng/ml) then infected with HIV-Bal at 10 ng of HIV p24/1×10^6 cells for 24 hours. The cells were then washed extensively or trypsinized to remove bound virus and propagated in the presence of the respective cytokine concentration. HIV infection was monitored by p24 ELISA seven days post-infection. […]
(§3) IFN-γ Treatment and HIV Infection. […] HIV infection was monitored at day 7 postinfection by measuring p24 levels by conventional enzyme-linked immunosorbent assay (ELISA) (National Cancer Institute, Frederick, Md.).

[4] = tested on: CD4, hMR, CXCR4 on HFA; assay: HIV receptor and chemokine co-receptor expression on HFA by flow cytometry; assay type: cell-based, human
Method: (§4) U87MG (A) and HFA (B) were left untreated or treated GM-CSF (50 ng/ml) or IFNγ (100 ng/ml) for 24 h. Expression of receptors on the x-axis was measured by flow cytometry. Isotype refers to mouse IgG. Data is representative of three experiments. Error bars represent standard deviation of the mean. (C). IFNγ up-regulates D6 on U87MG cells. U87MG were left untreated or treated with IFNγ. After 3 days, the cells were immunostained with anti-D6 or isotype antibodies. The first histogram (peak) represents isotype control; the dark shaded histogram represents untreated cultures, and the third histogram (peak) represents IFNγ-treated cultures. Data is typical of quadruplet experiments.
(§5) Because IFNγ was a potent cytokine in inducing HIV infection of astrocytes, it was determined whether IFNγ treatment modulated key HIV receptors CD4, human mannose receptor D6 and co-receptors (CCR1, CCR2, CCR3, CXCR4, and CCR5) for HIV infection. U87MG is human mannose receptor (hMR) […] (FIG. 5). However, hMR was not detected on HFA, which may be regulated by the differentiation stage of the HFA (FIG. 5 (B)). CD4 and hMR expression in both U87MG and HFA was not augmented by IFNγ or GM-CSF (FIG. 5(A)-(B)). […] HFA were positive for CXCR4 (12%), but its expression was not augmented by GM-CSF or IFNγ treatment (FIG. 5B). IFNγ was reported to enhance CXCR4 and CCR5 expression on simian adult astrocytes, which is in contrast to data on human fetal astrocytes highlighting a discrepancy between simian adult and human fetal astrocytes. […] Infection of U87MG and HFA with a T-tropic isolate (IIIB), while it was productive, was not enhanced by cytokine pre-treatment. This may be a consequence of the laboratory adapted HIV IIIB, therefore primary T-tropic or dual tropic strains may still be responsive to IFNγ pre-treatment of astrocytes. Recently, the CC chemokine receptor D6 was identified as a functional co-receptor for primary HIV infection of astrocytes.

[5] = tested on: HIV-Bal in HFA; assay: Cytokine pre-stimulation and HIV-Bal replication in human fetal astrocytes, p24 ELISA; assay type: cell-based; settings: 24 h pre-stimulation, p24 day 7
Method: as §1, §2, §3

[6] = tested on: IFNγ, GM-CSF and TNFγ receptors on U87MG; assay: Cytokine receptor expression on U87MG by flow cytometry; assay type: cell-based, human; settings: 24-hour treatment
Method: U87MG (A) or HFA (B) were left untreated or treated with GM-CSF (50 ng/ml), IFNγ100 ng/ml) or TNFγ100 ng/ml). […] Percent expression of GM-CSF receptor (R), IFNγR, and TNFγR was measured 24 hours post-stimulation by flow cytometry. Data is representative of three experiments. Error bars represent standard deviations of the mean.
Prior to evaluating if GM-CSF, IFNγ, and TNFγ can augment HIV replication of astrocytes, a question was whether U87MG and HFA express the respective cytokine receptors. U87MG and HFA were treated with or without the respective cytokine for 24 hours and cytokine receptor expression was evaluated by flow cytometry. Approximately 35% of U87MG expressed the IFNγ receptor and a low level of GM-CSF and TNFγ receptors (<8%; FIG. 3A). […] Untreated HFA expressed only low levels of IFNγ receptor (6%) and this expression was abrogated with IFNγ treatment. GM-CSF and TNFγ receptors were not expressed on HFA.

[7] = tested on: CD4, hMR, CCR1, D6 on U87MG; assay: HIV receptor and chemokine co-receptor expression on U87MG by flow cytometry; assay type: cell-based, human
Method: as §4, §5

N-acetyl-Leu-Leu-norleucinal [ALLN peptide]
Induction of HIV IIIB replication [1]: three | Induction of HIV 30215 replication [2]: five-fold

GM-CSF: cytokine secreted by glial cells; used to pre-stimulate astrocytes
Induction of HIV replication [3]: 5 fold | CD4 and hMR expression [4]: not augmented | CXCR4 expression ([4]; untreated 12%): not augmented | Induction of HIV replication [5]: no effect | Effect on respective cytokine receptor expression [6]: neither GM-CSF nor TNFγ treatments had an effect | CD4 and hMR expression [7]: not augmented | Up-regulation of CCR1 expression ([7]; 24 h treatment): no effect
